One assay addresses T1, EphB1-EphrinB2 (EB2) (Rattus norvegicus, UniProt P09759).
T1 construct: rat EphB1-Fc residues 18-538; mouse EB2-His residues 18-232; purchased R&D Systems (EphB1-Fc); Sino Biologicals (EB2-His)
T1 sequence (P09759 18-538): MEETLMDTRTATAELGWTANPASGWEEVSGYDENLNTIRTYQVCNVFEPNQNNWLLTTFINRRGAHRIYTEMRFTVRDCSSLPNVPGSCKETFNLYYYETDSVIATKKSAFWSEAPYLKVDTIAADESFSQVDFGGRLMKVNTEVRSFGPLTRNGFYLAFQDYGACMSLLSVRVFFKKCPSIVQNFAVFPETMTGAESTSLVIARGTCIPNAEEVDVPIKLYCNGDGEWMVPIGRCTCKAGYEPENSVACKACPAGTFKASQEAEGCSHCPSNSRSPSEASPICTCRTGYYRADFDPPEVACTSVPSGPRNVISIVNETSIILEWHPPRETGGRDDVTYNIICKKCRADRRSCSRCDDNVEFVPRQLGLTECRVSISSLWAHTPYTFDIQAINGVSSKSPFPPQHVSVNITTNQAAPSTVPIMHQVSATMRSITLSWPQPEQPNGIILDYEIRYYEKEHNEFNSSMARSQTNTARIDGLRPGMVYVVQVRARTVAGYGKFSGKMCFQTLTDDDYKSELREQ
The assay can be described thus: Alpha assay EphB1-EphrinB2 (EB2) interaction. It is filed as binding, mouse EB2. The source says:
A chemiluminescent AlphaScreen™ bead-based proximity assay suitable for HTS was developed to measure the receptor-ligand interaction formed between EphB1 and EphrinB2 (EB2) ectodomains (FIG. 3). Here, when singlet oxygen molecules generated by high energy irradiation of donor beads travel over a constrained distance to excite acceptor beads, a chemiluminescent signal is generated and detected. If an analyte interferes with the EphB1-EB2 protein-protein interaction, close proximity of the donor and acceptor beads will be disrupted resulting in diminished or lost energy transfer and reduced acceptor bead emission.
Test was conducted in the Alpha assay, to see if purified soluble Reelin (previously shown to bind EphB1 ectodomain) can interfere with EphB1-EB2 binding.
The EphB1-EB2 screen was conducted using 0.8 nM of each protein, 50 ng beads per well, and assessed at 5 μM a library of −240,000 small, drug-like chemicals. […] They were also tested in a counter screen designed to identify non-specific compounds. Here, a single-protein Alpha assay was set up using a dual-tagged EphB2-His-Fc ectodomain protein that can bind both donor and acceptor beads to bring them into proximity. If a selected compound simply absorbs the chemiluminescent signal or interferes with bead function/binding or protein folding, it was hypothesized that it would also reduce signals in the single protein assay, and would consider it a false positive.

Another assay concerns the target T2, EphB2-EphrinB2 (Mus musculus, UniProt P54763).
T2 sequence (P54763 19-543 limits assumed): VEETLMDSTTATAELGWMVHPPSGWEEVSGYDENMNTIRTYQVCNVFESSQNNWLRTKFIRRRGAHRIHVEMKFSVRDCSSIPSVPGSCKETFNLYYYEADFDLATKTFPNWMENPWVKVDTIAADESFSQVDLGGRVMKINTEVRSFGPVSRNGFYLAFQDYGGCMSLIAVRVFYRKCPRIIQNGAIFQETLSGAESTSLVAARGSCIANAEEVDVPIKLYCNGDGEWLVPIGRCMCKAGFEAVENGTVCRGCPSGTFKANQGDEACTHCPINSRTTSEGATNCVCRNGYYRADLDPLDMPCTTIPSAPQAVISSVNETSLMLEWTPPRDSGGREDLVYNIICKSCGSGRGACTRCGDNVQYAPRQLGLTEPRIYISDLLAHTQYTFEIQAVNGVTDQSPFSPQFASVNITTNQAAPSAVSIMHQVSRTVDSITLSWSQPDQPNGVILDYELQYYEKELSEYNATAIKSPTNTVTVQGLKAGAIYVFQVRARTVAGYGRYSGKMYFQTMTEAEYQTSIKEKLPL
Put plainly: Octet, immobilized mouse EphB2 binding to mouse EphrinB2. The settings on record: for IC50: immobilized mouse EphB2, 50 nM soluble mouse EphrinB2. The source says: The novel compound A20-I is a halogen replacement that changes the 7-bromine in A20 for iodine and had enhanced tetramerization inhibitor activity (FIGS. 38A-38D). This is evident when comparing results of A20-I and A20 salt compounds on the interaction of immobilized mouse EphB2 ectodomain binding to soluble mouse EphrinB2 ectodomain (FIG. 38A and FIG. 38B) or soluble human EphrinA5 (FIG. 38C). […] During these interactions of immobilized EphB ectodomains binding to soluble EphrinB2, the tetramer is much more surmountable by addition of an active compound than for the reverse experiment where EphrinB2 is immobilized and EphB2 is the soluble component in the assay (see FIG. 11, FIG. 17, and FIG. 25A-FIG. 25C). It is believed that the more resistant unsurmountable tetramer formed by immobilized EphrinB2 binding to soluble EphB ectodomains provides for the most rigorous test for determining IC50 values and thus utilizing this EphrinB2-EphB2 assay for analysis of all compounds, provide uniformity in observed results. The results described herein with A20-I and using the human EphrinB2-EphB2 interaction indicates replacements can be made in the 7-bromine in A20 that lead to enhanced tetramerization inhibitor activity.
(In general: BLI is a label-free optical method that tracks binding on a fibre tip over time.)

The mark [1] stands for this setting: Absolute Association IC50, mEphB2-mEphrinB2, association, absolute.
[2] abbreviates: Absolute Dissociation IC50, mEphB2-mEphrinB2, dissociation, absolute.
Where [3] appears, read: Relative Association IC50, mEphB2-mEphrinB2, association, relative.
[4] abbreviates: Relative Dissociation IC50, mEphB2-mEphrinB2, dissociation, relative.

Where “and” joins values, the source holds several entries; their conditions need not be identical. Identical values can stand only once.

Turning to `Oc1ccc(CN2CCOCC2)c2cccnc12` [Compound 1, 5-(morpholinomethyl)quinolin-8-ol], the “antagonism of EphB1-EB2” value at EphB1-EphrinB2 (EB2) is “some inhibitory activity though it was not apparent until higher concentrations”. Also, the IC50 on EphB2-EphrinB2 (setting [1]) was 100 µM; on EphB2-EphrinB2 (setting [2]) it was 9.9 µM; at EphB2-EphrinB2 (setting [3]), 10.9 µM; at EphB2-EphrinB2 (setting [4]), 0.9 µM.

In the case of `Oc1c(Cl)cc(CN2CCOCC2)c2cccnc12` [Compound 3, 7-chloro-5-(morpholinomethyl)quinolin-8-ol], the “antagonism of EphB1-EB2” value on EphB1-EphrinB2 (EB2) was “may be as effective as A20 at antagonizing EphB1-EB2 and EphB2-EB2 interactions”.

Consider `Oc1c(Cl)cc(CN2CCOCC2)c2cccnc12` [Compound 4, 4-((7-chloro-8-hydroxyquinolin-1-ium-5-yl)methyl)morpholin-4-ium chloride], for which the 50% inhibitory concentration (IC50) on EphB2-EphrinB2 (setting [1]) is 4.29 µM; at EphB2-EphrinB2 (setting [2]), 0.9 µM; on EphB2-EphrinB2 (setting [3]) it was 0.94 µM; on EphB2-EphrinB2 (setting [4]) it was 0.63 µM.

On to `Oc1c(Br)cc(CN2CCOCC2)c2cccnc12` [Compound 6, 4-((7-bromo-8-hydroxyquinolin-1-ium-5-yl)methyl)morpholin-4-ium chloride], for which the concentration for half-maximal inhibition (IC50) amounted to 2.92 µM on EphB2-EphrinB2 (setting [1]), 0.68 µM on EphB2-EphrinB2 (setting [2]), 1.04 µM at EphB2-EphrinB2 (setting [3]) and 0.5 µM on EphB2-EphrinB2 (setting [4]).

Consider `Oc1c(I)cc(CN2CCOCC2)c2cccnc12` [Compound 7, 7-iodo-5-(morpholinomethyl)quinolin-8-ol], for which the “elimination of tetramer” value at EphB2-EphrinB2 (100 μM) is on record as “eliminated all tetramer species”.

In the case of `Oc1c(I)cc(CN2CCOCC2)c2cccnc12` [Compound 8, 4-((8-hydroxy-7-iodoquinolin-1-ium-5-yl)methyl)morpholin-4-ium chloride], the IC50 at EphB2-EphrinB2 (setting [1]) was 0.69 µM and 1.3 µM; at EphB2-EphrinB2 (setting [2]), 0.47 µM and 0.51 µM; at EphB2-EphrinB2 (setting [3]), 0.3 µM and 0.41 µM; on EphB2-EphrinB2 (setting [4]), 0.25 µM and 0.51 µM.

For the compound `O=[N+]([O-])c1cc(CN2CCOCC2)c2cccnc2c1O` [Compound 10, 4-((8-hydroxy-7-nitroquinolin-1-ium-5-yl)methyl)morpholin-4-ium chloride], the IC50 on EphB2-EphrinB2 (setting [1]), on EphB2-EphrinB2 (setting [2]), at EphB2-EphrinB2 (setting [3]) and on EphB2-EphrinB2 (setting [4]) was under 10 µM throughout.

Consider `O=S1(=O)CCN(Cc2ccc(O)c3ncccc23)CC1` [Compound 15, 4-((8-hydroxyquinolin-1-ium-5-yl)methyl)thiomorpholin-4-ium 1,1-dioxide chloride], for which the IC50 at EphB2-EphrinB2 (setting [1]) worked out at 100 µM; on EphB2-EphrinB2 (setting [2]) it was 6.53 µM; on EphB2-EphrinB2 (setting [3]), 6.31 µM; at EphB2-EphrinB2 (setting [4]), 0.99 µM.

Consider `Oc1ccc(CN2CCN(c3ccc(Br)cc3)CC2)c2cccnc12` [Compound 26, 5-((4-(4-bromophenyl)piperazin-1-yl)methyl)quinolin-8-ol], for which the “antagonism of EphB1-EB2” value on EphB1-EphrinB2 (EB2) is “strong dose-dependent antagonist activity”.

For the compound `Oc1ccc(CN2CCN(Cc3ccc(C(F)(F)F)cc3)CC2)c2cccnc12` [Compound 48, 5-((4-(4-(trifluoromethyl)benzyl)piperazin-1-yl)methyl)quinolin-8-ol], the IC50 at EphB2-EphrinB2 (setting [1]) is 100 µM; at EphB2-EphrinB2 (setting [2]), 8.12 µM; at EphB2-EphrinB2 (setting [3]) it was 12.1 µM; at EphB2-EphrinB2 (setting [4]), 2.12 µM.

For `Oc1ccc(CN2CCN(c3ccc(F)cc3F)CC2)c2cccnc12` [Compound 62, 5-((4-(2,4-difluorophenyl)piperazin-1-yl)methyl)quinolin-8-ol], the “antagonism of EphB1-EB2” value on EphB1-EphrinB2 (EB2) is recorded as “some inhibitory activity though it was not apparent until higher concentrations”.

As to `Oc1ccc(CN2CCCCC2)c2cccnc12` [Compound 68, 5-(piperidin-1-ylmethyl)quinolin-8-ol, reference compound], the “antagonism of EphB1-EB2” value at EphB1-EphrinB2 (EB2) is given as “did not exhibit any activity”.

In the case of `COc1ccccc1N1CCN(Cc2cc(Br)c(O)c3ncccc23)CC1` [Compound 70, 7-bromo-5-((4-(2-methoxyphenyl)piperazin-1-yl)methyl)quinolin-8-ol], the “antagonism of EphB1-EB2” value on EphB1-EphrinB2 (EB2) was “may be as effective as A20 at antagonizing EphB1-EB2 and EphB2-EB2 interactions”.

Regarding `Oc1c(CN2CCCCC2)cc(Cl)c2cccnc12` [Compound 76, 5-chloro-7-(piperidin-1-ylmethyl)quinolin-8-ol, reference compound], the “antagonism of EphB1-EB2” value on EphB1-EphrinB2 (EB2) is reported as “did not exhibit any activity”.

For the compound `COCc1cc(CN2CCN(C)CC2)c(O)c2ncccc12` [Compound 77, 5-(methoxymethyl)-7-((4-methylpiperazin-1-yl)methyl)quinolin-8-ol, reference compound], at EphB1-EphrinB2 (EB2), the “antagonism of EphB1-EB2” value is recorded as “did not exhibit any activity”.

As a reminder, the IC50 is the concentration that inhibits the measured activity by half.

The record behind these values is patent US20260374739A1, “SMALL MOLECULAR WEIGHT CHEMICAL COMPOUND TO ANTAGONIZE EPH-EPHRIN TETRAMERIZATION AND INHIBIT BIDIRECTIONAL SIGNALING” (THE BOARD OF REGENTS OF THE UNIVERSITY OF TEXAS SYSTEM, priority 2022, published 2026).
